How the values were obtained:
[1] = biological target: full-length RORγt in Jurkat cells (Homo sapiens (Human), UniProt P51449); assay: RORγt 5xRORE Assay in Jurkat Cells (Assay 2); assay type: cell-based; details: Nanoluc luciferase reporter, 16-18 hrs, Table 9, read-out: RORγt5X IC50 Range*
Protocol: [formula] RORγt 5xRORE Assay in Jurkat Cells (Assay 2)
Compounds of the present invention were tested for RORγ inverse agonist activity in a cell-based, transcriptional activity assay. Secreted Nanoluc® luciferase was used as a reporter for transcriptional activity of the full-length RORγt in Jurkat cells (ATCC, Cat. # TIB-152). A reporter plasmid was constructed by inserting 5 repeats of the ROR Response Element (RORE) […] (SEQ ID NO:1) into a commercially available promoterless plasmid pNL1.3[secNluc] (Promega, Cat. # N1021) using KpnI and HindIII restriction sites. The expression plasmid for RORγt was purchased (Geneocopoeia, Cat. # EX-T6988-M02). Jurkat cells (30 million cells) were transfected with 11 μg of EX-T6988-MO2 and 26 μg of the reporter plasmid in OptiMEM® media using Lipofectamine® LTX and Plus™ reagents (Life Technologies, Cat. #15338-100). After 5-6 h of incubation at 37° C./5% CO2, the cells were collected, resuspended in phenol-red free RPMI media containing 10% (v/v) delipidated FBS (Hyclone, Cat. # SH30855.03) and dispensed into 96-well clear bottom tissue culture plates (CoStar, Cat. #3603), at 80,000 cells per well. Tested compounds were added to the cells in the same media (final concentration of DMSO was 0.1% (v/v)), and the plates were incubated at 37° C./5% CO2 for 16-18 hrs. Luciferase activity in the conditioned supernatants was determined with NanoGlo® assay reagents (Promega, Cat. # N1130).

[2] = biological target: recombinant RORγ Ligand Binding Domain (LBD) protein (Homo sapiens (Human), UniProt P51449); assay: Radio-Ligand RORγ Binding Assay (Assay 1); details: competition with 25-hydroxy [26,27-3H]-cholesterol, SPA; Table 9; read-out: RORγ Binding Ki Range*
Summary of the method: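 Scintillation proximity competition binding of 8.6 nM stock 25-hydroxy[26,27-3H]cholesterol to 24 nM stock 6×His-GST-tagged human RORγ LBD, in 50 mM HEPES pH 7.4 with NaCl, MgCl2, glycerol, CHAPS, β-octylglucopyranoside and DTT, room temperature. Inhibition referenced to DMSO and 10 μM T0901317; IC50 by four-parameter fit, converted to Ki using radioligand concentration and KD.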

Chain of recombinant RORγ Ligand Binding Domain (LBD) protein (P51449 269-508): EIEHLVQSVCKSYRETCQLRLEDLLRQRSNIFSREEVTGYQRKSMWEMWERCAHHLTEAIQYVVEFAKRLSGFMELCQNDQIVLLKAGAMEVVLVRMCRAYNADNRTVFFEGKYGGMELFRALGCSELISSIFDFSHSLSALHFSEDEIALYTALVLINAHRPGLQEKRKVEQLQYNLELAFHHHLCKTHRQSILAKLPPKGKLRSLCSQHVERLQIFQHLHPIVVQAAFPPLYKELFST
Chain of full-length RORγt in Jurkat cells (P51449 other isoform, or with tags, fused parts or gaps): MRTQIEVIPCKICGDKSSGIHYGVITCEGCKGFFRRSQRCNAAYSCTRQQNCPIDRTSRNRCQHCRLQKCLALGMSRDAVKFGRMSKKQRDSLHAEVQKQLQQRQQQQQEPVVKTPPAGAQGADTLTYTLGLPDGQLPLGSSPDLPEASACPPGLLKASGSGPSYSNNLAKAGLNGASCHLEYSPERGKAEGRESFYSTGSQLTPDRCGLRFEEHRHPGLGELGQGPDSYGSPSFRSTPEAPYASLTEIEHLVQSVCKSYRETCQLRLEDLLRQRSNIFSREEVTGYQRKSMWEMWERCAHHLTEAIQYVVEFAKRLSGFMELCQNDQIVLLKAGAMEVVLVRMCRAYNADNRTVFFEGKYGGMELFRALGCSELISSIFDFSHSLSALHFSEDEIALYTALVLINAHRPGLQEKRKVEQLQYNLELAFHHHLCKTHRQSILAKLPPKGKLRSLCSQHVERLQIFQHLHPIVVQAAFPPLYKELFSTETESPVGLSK

| SMILES | IC50 [1] [nM] | Ki [2] [nM] |
| --- | --- | --- |
| CCS(=O)(=O)c1ccc(CC(=O)Nc2nc3c(s2)CN(Cc2ccc(F)cc2F)[C@H]3C(C)C)cc1 | > 1000 | < 100 |
| CCS(=O)(=O)c1ccc(CC(=O)Nc2nc3c(s2)CN(c2cnc(C(F)(F)F)cn2)[C@H]3C(C)C)cc1 | > 1000 | < 100 |
| CCS(=O)(=O)c1ccc(CC(=O)Nc2nc3c(s2)CN(c2ncc(Cl)c(C)n2)[C@H]3C(C)C)cc1 | > 1000 | < 100 |
| CC(C)[C@H]1c2nc(NC(=O)Cc3ccc(S(C)(=O)=O)cc3)sc2CN1Cc1ccc(F)cc1 | > 1000 | < 100 |
| CCS(=O)(=O)c1ccc(CC(=O)Nc2nc3c(s2)CN(Cc2ccc(F)c(F)c2)[C@H]3C(C)C)cc1 | > 1000 | < 100 |
| CCS(=O)(=O)c1ccc(CC(=O)Nc2nc3c(s2)CN([C@H](C)Cc2ccccc2C(F)(F)F)[C@@H]3C(C)C)cc1 | > 1000 | < 100 |
| CC[C@@H]1c2nc(NC(=O)Cc3ccc(S(=O)(=O)CC)cc3)sc2CN1Cc1ccc2c(c1)OCO2 | > 1000 | < 100 |
| CC[C@@H]1c2nc(NC(=O)Cc3ccc(S(=O)(=O)CC)cc3)sc2CN1Cc1ccc(OC(C)C)cc1 | > 1000 | < 100 |
| CCc1ccc(CN2Cc3sc(NC(=O)Cc4ccc(S(C)(=O)=O)cc4)nc3[C@H]2C(C)C)cc1 | > 1000 | < 100 |
| CCS(=O)(=O)c1ccc(CC(=O)Nc2nc3c(s2)CN([C@@H](C)Cc2ccccc2C(F)(F)F)[C@@H]3C(C)C)cc1 | > 1000 | < 100 |
| CCS(=O)(=O)c1ccc(CC(=O)Nc2nc3c(s2)CN([C@H](C)Cc2ccccc2)[C@@H]3C(C)C)cc1 | > 1000 | < 100 |
| CCS(=O)(=O)c1ccc(CC(=O)Nc2nc3c(s2)CN([C@H](C)Cc2ccc(F)cc2)[C@@H]3C(C)C)cc1 | > 1000 | < 100 |
| CC[C@@H]1c2nc(NC(=O)Cc3ccc(S(=O)(=O)CC)cc3)sc2CN1Cc1ccc(Cl)cc1 | > 1000 | < 100 |
| CCS(=O)(=O)c1ccc(CC(=O)Nc2nc3c(s2)CN(Cc2ccc(OC(F)F)cc2)[C@@H]3C(C)C)cc1 | > 1000 | < 100 |
| CC(C)[C@@H]1c2nc(NC(=O)Cc3ccc(S(C)(=O)=O)cc3)sc2CN1Cc1ccc(OC(F)(F)F)cc1 | > 1000 | 100 to 1000 |
| CC(C)c1ccc(CN2Cc3sc(NC(=O)Cc4ccc(S(C)(=O)=O)cc4)nc3[C@H]2C(C)C)cc1 | > 1000 | < 100 |

| SMILES | IC50 [1] [nM] | Ki [2] [nM] |
| --- | --- | --- |
| CCS(=O)(=O)c1ccc(CC(=O)Nc2nc3c(s2)CN(Cc2cccc(C4CC4)c2)[C@@H]3C(C)C)cc1 | > 1000 | < 100 |
| CCS(=O)(=O)c1ccc(CC(=O)Nc2nc3c(s2)CN(Cc2ccnc(C(F)(F)F)c2)[C@@H]3C(C)C)cc1 | > 1000 | 100 to 1000 |
| CC(C)[C@@H]1c2nc(NC(=O)Cc3ccc(S(C)(=O)=O)cc3)sc2CN1Cc1cccc(C#N)c1 | > 1000 | 100 to 1000 |
| CC(C)[C@@H]1c2nc(NC(=O)Cc3ccc(S(C)(=O)=O)cc3)sc2CN1Cc1cccc(Br)c1 | > 1000 | < 100 |
| CC(C)[C@@H]1c2nc(NC(=O)Cc3ccc(S(C)(=O)=O)cc3)sc2CN1Cc1cccc(Cl)c1 | > 1000 | < 100 |
| CC(C)[C@@H]1c2nc(NC(=O)Cc3ccc(S(C)(=O)=O)cc3)sc2CN1Cc1cccc(F)c1 | > 1000 | < 100 |
| CCS(=O)(=O)c1ccc(CC(=O)Nc2nc3c(s2)CN(CCc2ccccc2)[C@@H]3C(C)C)cc1 | > 1000 | < 100 |
| CCS(=O)(=O)c1ccc(CC(=O)Nc2nc3c(s2)CN(Cc2cccc(Br)c2)[C@@H]3C(C)C)cc1 | > 1000 | < 100 |
| CCS(=O)(=O)c1ccc(CC(=O)Nc2nc3c(s2)CN(Cc2cc(OC(F)F)ccc2F)[C@@H]3C(C)C)cc1 | > 1000 | < 100 |
| CC[C@@H]1c2nc(NC(=O)Cc3ccc(S(=O)(=O)CC)cc3)sc2CN1Cc1ccccc1F | > 1000 | < 100 |
| CCS(=O)(=O)c1ccc(CC(=O)Nc2nc3c(s2)CN(Cc2cccc(F)c2)[C@@H]3C(C)C)cc1 | > 1000 | < 100 |
| CC[C@@H]1c2nc(NC(=O)Cc3ccc(S(C)(=O)=O)cc3)sc2CN1Cc1cccc(C(F)(F)F)c1 | > 1000 | < 100 |
| CCS(=O)(=O)c1ccc(CC(=O)Nc2nc3c(s2)CN(Cc2ccccc2)[C@@H]3C(C)C)cc1 | > 1000 | < 100 |
| CCS(=O)(=O)c1ccc(CC(=O)Nc2nc3c(s2)CN(c2nccc(C4CC4)n2)[C@@H]3C(C)C)cc1 | > 1000 | < 100 |
| CCS(=O)(=O)c1ccc(CC(=O)Nc2nc3c(s2)CN(Cc2cc(OC(F)(F)F)ccc2F)[C@@H]3C(C)C)cc1 | > 1000 | < 100 |

Continued, values first:

| IC50 [1] [nM] | Ki [2] [nM] | SMILES |
| --- | --- | --- |
| > 1000 | < 100 | CCS(=O)(=O)c1ccc(CC(=O)Nc2nc3c(s2)CN(CCc2ccc(Cl)cc2)[C@H]3C(C)C)cc1 |
| > 1000 | < 100 | CCS(=O)(=O)c1ccc(CC(=O)Nc2nc3c(s2)CN([C@H](C)Cc2ccccc2)[C@H]3C(C)C)cc1 |
| 100 to 1000 | < 100 | CC[C@H]1c2nc(NC(=O)Cc3ccc(S(=O)(=O)CC)cc3)sc2CN1[C@@H](C)c1ncc(Cl)cc1F |
| 100 to 1000 | < 100 | CCS(=O)(=O)c1ccc(CC(=O)Nc2nc3c(s2)CN([C@@H](C)Cc2ccc(Cl)cc2)[C@H]3C(C)C)cc1 |
| > 1000 | < 100 | CC[C@H]1c2nc(NC(=O)Cc3ccc(S(=O)(=O)CC)cc3)sc2CN1[C@@H](C)Cc1ccccc1 |
| < 100 | 100 to 1000 | CC[C@H]1c2nc(NC(=O)Cc3ccc(S(=O)(=O)CC)cc3)sc2CN1Cc1ncc(Cl)cn1 |
| < 100 | < 100 | CCS(=O)(=O)c1ccc(CC(=O)Nc2nc3c(s2)CN(Cc2ccc(C(N)=O)cc2)[C@H]3C(C)C)cc1 |
| 100 to 1000 | < 100 | CCS(=O)(=O)c1ccc(CC(=O)Nc2nc3c(s2)CN(Cc2ccc(C(=O)O)cc2)[C@H]3C(C)C)cc1 |
| 100 to 1000 | < 100 | CC[C@H](C)C1c2nc(C(=O)NCc3ccc(S(C)(=O)=O)cc3)sc2CN1Cc1ccc(OC(F)F)cc1 (stereo partly drawn) |
| > 1000 | 100 to 1000 | CCS(=O)(=O)c1ccc(CC(=O)Nc2nc3c(s2)CN(Cc2ccn(C)c(=O)c2)[C@H]3C(C)C)cc1 |
| > 1000 | 100 to 1000 | CC(C)[C@H]1c2nc(NC(=O)Cc3ccc(S(C)(=O)=O)cc3)sc2CN1Cc1ccn(C)c(=O)c1 |
| > 1000 | 100 to 1000 | CC1(C)c2nc(NC(=O)Cc3ccc(S(C)(=O)=O)cc3)sc2CN1Cc1ccc(Cl)cc1 |
| 100 to 1000 | < 100 | CC[C@H]1c2nc(NC(=O)Cc3ccc(F)cc3)sc2CN1Cc1ccc(Cl)cc1 |
| < 100 | < 100 | CCS(=O)(=O)c1ccc(CC(=O)Nc2nc3c(s2)CN(Cc2ccc(Br)cc2)[C@H]3C(C)C)cc1 |
| 100 to 1000 | < 100 | CC(C)[C@H]1c2nc(C(=O)NCc3ccc(S(C)(=O)=O)cc3)sc2CN1Cc1ccc(C#N)cc1 |
| 100 to 1000 | < 100 | CCS(=O)(=O)c1ccc(CC(=O)Nc2nc3c(s2)CN(Cc2ccc(C#N)cc2)[C@@H]3C(C)(C)C)cc1 |
| 100 to 1000 | < 100 | CCOc1ccc(CN2Cc3sc(NC(=O)Cc4ccc(S(=O)(=O)CC)cc4)nc3[C@H]2CC)cc1 |
| 100 to 1000 | < 100 | CCS(=O)(=O)c1ccc(CC(=O)Nc2nc3c(s2)CN(Cc2ccc(C(F)(F)F)c(F)c2)[C@@H]3C(C)C)cc1 |
| 100 to 1000 | 100 to 1000 | CC[C@@H](C)[C@@H]1c2nc(NC(=O)Cc3ccc(S(C)(=O)=O)cc3)sc2CN1Cc1ccc(OC(F)(F)F)cc1 |
| 100 to 1000 | 100 to 1000 | CC(C)[C@@H]1c2nc(NC(=O)Cc3ccc(S(C)(=O)=O)cc3)sc2CN1Cc1ccc(C(F)(F)F)cc1F |
| 100 to 1000 | 100 to 1000 | CCS(=O)(=O)c1ccc(CC(=O)Nc2nc3c(s2)CN(Cc2ccc(C#N)c(F)c2)[C@@H]3C(C)C)cc1 |
| 100 to 1000 | 100 to 1000 | CC(C)[C@@H]1c2nc(NC(=O)Cc3ccc(S(C)(=O)=O)cc3)sc2CN1Cc1ccc(Cl)cc1 |
| 100 to 1000 | < 100 | CCS(=O)(=O)c1ccc(CC(=O)Nc2nc3c(s2)CN(Cc2ccc(C(F)(F)F)cc2)[C@@H]3C(C)C)cc1 |
| 100 to 1000 | 100 to 1000 | CC(C)[C@@H]1c2nc(NC(=O)Cc3ccc(S(C)(=O)=O)cc3)sc2CN1Cc1ccc(OC(F)F)cc1 |
| 100 to 1000 | 100 to 1000 | CC(C)[C@@H]1c2nc(NC(=O)Cc3ccc(S(C)(=O)=O)cc3)sc2CN1Cc1ccc(OC(F)F)cc1F |
| 100 to 1000 | 100 to 1000 | CCS(=O)(=O)c1ccc(CC(=O)Nc2nc3c(s2)CN(Cc2ccc(C#N)cc2)[C@@H]3C(C)C)cc1 |
